According to ChEMBL document CHEMBL5543142, “Discovery of YFJ-36: Design, Synthesis, and Antibacterial Activities of Catechol-Conjugated β-Lactams against Gram-Negative Bacteria” (J Med Chem, 2024):

Legend:
Format in all cases: functional
Conditions in all cases: time 18-20 hrs
Escherichia coli [1] = experiment: Antibacterial activity against ESBL-producing multidrug-resistant Escherichia coli clinical isolate 14-1 assessed as inhibition of bacterial growth incubated for 18 to 20 hrs by two fold serial dilution assay
Escherichia coli [2] = experiment: Antibacterial activity against ESBL-producing multidrug-resistant Escherichia coli clinical isolate 14-2 assessed as inhibition of bacterial growth incubated for 18 to 20 hrs by two fold serial dilution assay
Escherichia coli [3] = experiment: Antibacterial activity against ESBL-producing multidrug-resistant Escherichia coli clinical isolate 14-4 assessed as inhibition of bacterial growth incubated for 18 to 20 hrs by two fold serial dilution assay
Acinetobacter baumannii [4] = experiment: Antibacterial activity against OXA-23 producing multidrug-resistant Acinetobacter baumannii clinical isolate 15-1 assessed as inhibition of bacterial growth incubated for 18 to 20 hrs by two fold serial dilution assay
Acinetobacter baumannii [5] = experiment: Antibacterial activity against OXA-23 producing multidrug-resistant Acinetobacter baumannii clinical isolate 15-2 assessed as inhibition of bacterial growth incubated for 18 to 20 hrs by two fold serial dilution assay
Acinetobacter baumannii [6] = experiment: Antibacterial activity against OXA-23 producing multidrug-resistant Acinetobacter baumannii clinical isolate 15-3 assessed as inhibition of bacterial growth incubated for 18 to 20 hrs by two fold serial dilution assay
Acinetobacter baumannii [7] = experiment: Antibacterial activity against OXA-23 producing multidrug-resistant Acinetobacter baumannii clinical isolate 15-4 assessed as inhibition of bacterial growth incubated for 18 to 20 hrs by two fold serial dilution assay
Acinetobacter baumannii [8] = experiment: Antibacterial activity against OXA-23 producing multidrug-resistant Acinetobacter baumannii clinical isolate 15-5 assessed as inhibition of bacterial growth incubated for 18 to 20 hrs by two fold serial dilution assay
Klebsiella pneumoniae [9] = experiment: Antibacterial activity against KPC-2 producing multidrug-resistant Klebsiella pneumoniae clinical isolate 15-1 assessed as inhibition of bacterial growth incubated for 18 to 20 hrs by two fold serial dilution assay
Klebsiella pneumoniae [10] = experiment: Antibacterial activity against KPC-2 producing multidrug-resistant Klebsiella pneumoniae clinical isolate 15-2 assessed as inhibition of bacterial growth incubated for 18 to 20 hrs by two fold serial dilution assay
Klebsiella pneumoniae [11] = experiment: Antibacterial activity against KPC-2 producing multidrug-resistant Klebsiella pneumoniae clinical isolate 15-5 assessed as inhibition of bacterial growth incubated for 18 to 20 hrs by two fold serial dilution assay
Escherichia coli [12] = experiment: Antibacterial activity against Escherichia coli ATCC35218 assessed as inhibition of bacterial growth incubated for 18 to 20 hrs by two fold serial dilution assay
Pseudomonas aeruginosa [13] = experiment: Antibacterial activity against IMP-4 producing multidrug-resistant Pseudomonas aeruginosa clinical isolate 17-13 assessed as inhibition of bacterial growth incubated for 18 to 20 hrs by two fold serial dilution assay
Pseudomonas aeruginosa [14] = experiment: Antibacterial activity against IMP-4 producing multidrug-resistant Pseudomonas aeruginosa clinical isolate 19-17 assessed as inhibition of bacterial growth incubated for 18 to 20 hrs by two fold serial dilution assay
Klebsiella pneumoniae [15] = experiment: Antibacterial activity against KPC-2 producing multidrug-resistant Klebsiella pneumoniae clinical isolate 15-3 assessed as inhibition of bacterial growth incubated for 18 to 20 hrs by two fold serial dilution assay
Pseudomonas aeruginosa [16] = experiment: Antibacterial activity against IMP-4 producing multidrug-resistant Pseudomonas aeruginosa clinical isolate 17-1 assessed as inhibition of bacterial growth incubated for 18 to 20 hrs by two fold serial dilution assay
Pseudomonas aeruginosa [17] = experiment: Antibacterial activity against Pseudomonas aeruginosa ATCC 27853 assessed as inhibition of bacterial growth incubated for 18 to 20 hrs by two fold serial dilution assay
Pseudomonas aeruginosa [18] = experiment: Antibacterial activity against IMP-4 producing multidrug-resistant Pseudomonas aeruginosa clinical isolate 15-1 assessed as inhibition of bacterial growth incubated for 18 to 20 hrs by two fold serial dilution assay
Pseudomonas aeruginosa [19] = experiment: Antibacterial activity against IMP-4 producing multidrug-resistant Pseudomonas aeruginosa clinical isolate 15-4 assessed as inhibition of bacterial growth incubated for 18 to 20 hrs by two fold serial dilution assay
Pseudomonas aeruginosa [20] = experiment: Antibacterial activity against IMP-4 producing multidrug-resistant Pseudomonas aeruginosa clinical isolate 15-5 assessed as inhibition of bacterial growth incubated for 18 to 20 hrs by two fold serial dilution assay
Acinetobacter baumannii [21] = experiment: Antibacterial activity against OXA-23 producing multidrug-resistant Acinetobacter baumannii clinical isolate 17-2 assessed as inhibition of bacterial growth incubated for 18 to 20 hrs by two fold serial dilution assay
Pseudomonas aeruginosa [22] = experiment: Antibacterial activity against IMP-4 producing multidrug-resistant Pseudomonas aeruginosa clinical isolate 19-5 assessed as inhibition of bacterial growth incubated for 18 to 20 hrs by two fold serial dilution assay
Pseudomonas aeruginosa [23] = experiment: Antibacterial activity against IMP-4 producing multidrug-resistant Pseudomonas aeruginosa clinical isolate 19-1 assessed as inhibition of bacterial growth incubated for 18 to 20 hrs by two fold serial dilution assay

| Structure (SMILES) | MIC (Escherichia coli [1]) | MIC (Escherichia coli [2]) | MIC (Escherichia coli [3]) | MIC (Acinetobacter baumannii [4]) | MIC (Acinetobacter baumannii [5]) | MIC (Acinetobacter baumannii [6]) | MIC (Acinetobacter baumannii [7]) | MIC (Acinetobacter baumannii [8]) | MIC (Klebsiella pneumoniae [9]) | MIC (Klebsiella pneumoniae [10]) | MIC (Klebsiella pneumoniae [11]) | MIC (Escherichia coli [12]) | MIC (Pseudomonas aeruginosa [13]) | MIC (Pseudomonas aeruginosa [14]) | MIC (Klebsiella pneumoniae [15]) | MIC (Pseudomonas aeruginosa [16]) | further results |
| --- | --- | --- | --- | --- | --- | --- | --- | --- | --- | --- | --- | --- | --- | --- | --- | --- | --- |
| Nc1nc(/C(=N/OC(C(=O)O)C2CCOCC2)C(=O)N[C@@H]2C(=O)N3C(C(=O)O)=C(CSCCNC(=O)c4ccc(O)c(O)c4Cl)CS[C@H]23)cs1.O=C(O)C(F)(F)F (stereo partly drawn) | 8 µg/mL | 16 µg/mL | 4 µg/mL | 32 µg/mL | 32 µg/mL | 16 µg/mL | 32 µg/mL | 16 µg/mL | 16 µg/mL | 16 µg/mL | 16 µg/mL | 4 µg/mL | 1 µg/mL | 8 µg/mL | 8 µg/mL | – | – |
| Nc1nc(/C(=N/OC(C(=O)O)C2CCCC2)C(=O)N[C@@H]2C(=O)N3C(C(=O)O)=C(CSCCNC(=O)c4ccc(O)c(O)c4Cl)CS[C@H]23)cs1.O=C(O)C(F)(F)F (stereo partly drawn) | 0.25 µg/mL | 2 µg/mL | 0.25 µg/mL | 32 µg/mL | 16 µg/mL | 16 µg/mL | 16 µg/mL | 32 µg/mL | 2 µg/mL | 2 µg/mL | 2 µg/mL | 0.25 µg/mL | 8 µg/mL | 1 µg/mL | 4 µg/mL | 1 µg/mL | – |
| CC(C)(C)C(O/N=C(\C(=O)N[C@@H]1C(=O)N2C(C(=O)O)=C(CSCCNC(=O)c3ccc(O)c(O)c3Cl)CS[C@H]12)c1csc(N)n1)C(=O)O.O=C(O)C(F)(F)F (stereo partly drawn) | 0.06 µg/mL | 1 µg/mL | 2 µg/mL | 2 µg/mL | 1 µg/mL | 2 µg/mL | 1 µg/mL | 2 µg/mL | 0.25 µg/mL | 1 µg/mL | 0.5 µg/mL | – | – | – | 16 µg/mL | – | MIC (Pseudomonas aeruginosa [17]): 4 µg/mL; MIC (Pseudomonas aeruginosa [18]): 4 µg/mL; MIC (Pseudomonas aeruginosa [19]): 8 µg/mL; MIC (Pseudomonas aeruginosa [20]): 4 µg/mL |
| CC(C)C(O/N=C(\C(=O)N[C@@H]1C(=O)N2C(C(=O)O)=C(CS[C@H]3CC[C@@H](NC(=O)c4ccc(O)c(O)c4Cl)CC3)CS[C@H]12)c1csc(N)n1)C(=O)O.O=C(O)C(F)(F)F (stereo partly drawn) | 0.125 µg/mL | 2 µg/mL | 16 µg/mL | 32 µg/mL | 16 µg/mL | 32 µg/mL | 16 µg/mL | 16 µg/mL | 2 µg/mL | 2 µg/mL | 2 µg/mL | – | – | – | 4 µg/mL | – | MIC (Pseudomonas aeruginosa [17]): 2 µg/mL; MIC (Pseudomonas aeruginosa [18]): 8 µg/mL; MIC (Pseudomonas aeruginosa [19]): 2 µg/mL; MIC (Pseudomonas aeruginosa [20]): 8 µg/mL |
| Nc1nc(/C(=N/OC(C(=O)O)C2CCC2)C(=O)N[C@@H]2C(=O)N3C(C(=O)O)=C(CSCCNC(=O)c4ccc(O)c(O)c4Cl)CS[C@H]23)cs1.O=C(O)C(F)(F)F (stereo partly drawn) | 0.5 µg/mL | 4 µg/mL | 0.25 µg/mL | 32 µg/mL | 32 µg/mL | 16 µg/mL | 32 µg/mL | 64 µg/mL | 8 µg/mL | 4 µg/mL | 4 µg/mL | 0.125 µg/mL | 1 µg/mL | 0.5 µg/mL | 16 µg/mL | 8 µg/mL | – |
| Cc1sc(N)nc1/C(=N/OC(C(=O)O)C1CCC(F)(F)CC1)C(=O)N[C@@H]1C(=O)N2C(C(=O)O)=C(CSCCNC(=O)c3ccc(O)c(O)c3Cl)CS[C@H]12.O=C(O)C(F)(F)F (stereo partly drawn) | 0.5 µg/mL | 1 µg/mL | 0.5 µg/mL | 4 µg/mL | 2 µg/mL | 4 µg/mL | 4 µg/mL | 2 µg/mL | 2 µg/mL | 4 µg/mL | 2 µg/mL | 0.25 µg/mL | 0.25 µg/mL | 0.25 µg/mL | 8 µg/mL | – | MIC (Acinetobacter baumannii [21]): 0.125 µg/mL; MIC (Pseudomonas aeruginosa [22]): 1 µg/mL; MIC (Pseudomonas aeruginosa [23]): 8 µg/mL |
| Nc1nc(/C(=N/OC(C(=O)O)C2CCSCC2)C(=O)N[C@@H]2C(=O)N3C(C(=O)O)=C(CSCCNC(=O)c4ccc(O)c(O)c4Cl)CS[C@H]23)cs1.O=C(O)C(F)(F)F (stereo partly drawn) | 0.125 µg/mL | 0.5 µg/mL | 0.25 µg/mL | 4 µg/mL | 8 µg/mL | 4 µg/mL | 8 µg/mL | 4 µg/mL | 2 µg/mL | 4 µg/mL | 8 µg/mL | 0.25 µg/mL | 1 µg/mL | 0.5 µg/mL | 4 µg/mL | – | – |
| Nc1nc(/C(=N/OC(C(=O)O)C2CCS(=O)(=O)CC2)C(=O)N[C@@H]2C(=O)N3C(C(=O)O)=C(CSCCNC(=O)c4ccc(O)c(O)c4Cl)CS[C@H]23)cs1.O=C(O)C(F)(F)F (stereo partly drawn) | 1 µg/mL | 1 µg/mL | 0.5 µg/mL | 2 µg/mL | 2 µg/mL | 2 µg/mL | 4 µg/mL | 4 µg/mL | 2 µg/mL | 2 µg/mL | 0.5 µg/mL | – | 1 µg/mL | 2 µg/mL | 2 µg/mL | – | – |
| C[C@@](O/N=C(\C(=O)N[C@@H]1C(=O)N2C(C(=O)O)=C(CSCCNC(=O)c3ccc(O)c(O)c3Cl)CS[C@H]12)c1csc(N)n1)(C(=O)O)C(F)(F)F.O=C(O)C(F)(F)F | 0.125 µg/mL | 0.5 µg/mL | 0.5 µg/mL | 16 µg/mL | 32 µg/mL | 32 µg/mL | 16 µg/mL | 16 µg/mL | 1 µg/mL | 1 µg/mL | 1 µg/mL | 0.06 µg/mL | 0.125 µg/mL | 0.5 µg/mL | 2 µg/mL | 4 µg/mL | – |
| Nc1nc(/C(=N/OC(C(=O)O)C2CC2)C(=O)N[C@@H]2C(=O)N3C(C(=O)O)=C(CSCCNC(=O)c4ccc(O)c(O)c4Cl)CS[C@H]23)cs1.O=C(O)C(F)(F)F (stereo partly drawn) | 0.5 µg/mL | 4 µg/mL | 0.5 µg/mL | 32 µg/mL | 64 µg/mL | 64 µg/mL | 64 µg/mL | 64 µg/mL | 16 µg/mL | 4 µg/mL | 4 µg/mL | 0.25 µg/mL | 1 µg/mL | 1 µg/mL | 64 µg/mL | 1 µg/mL | – |
